The source of these data is patent publication US11066630B2, “Device and method for analysis of tissue constructs” (The Johns Hopkins University, priority 2015, dated 2021).

Assay [1] deals with primary ASM cells from asthmatic and non-asthmatic donors. Put plainly: HASM stiffness measurements: drug-induced single-cell contraction or relaxation, asthmatic vs non-asthmatic ASM cells. It counts as cell-based, human. The method, then:
(§1) Primary human epithelial and smooth muscle cells were harvested from the proximal airways (first through third order bronchi) of donor lungs unsuitable for transplantation (Table I) in accordance with the Institutional Review Boards at the University of Pennsylvania. Primary normal human bronchial epithelial (NHBE) cells were grown in collagen-coated flasks (GIBCO) using serum-free BEGM Bronchial Epithelial Cell Growth Medium™ with BulletKit™ Supplements (Lonza) and subsequently trypsinized and seeded onto porous polycarbonate membranes (either inside microfluidic devices or on transwell inserts) at 100,000 cells/cm^2. The polycarbonate membranes were coated with collagen type I (30 μg/ml; GIBCO) at 37° C. for 18 h before cell seeding. After NHBE cells reached confluence (within 3-5 days), the apical medium was removed and the basal medium was replaced with differentiation medium (PneumaCult-ALI™ Medium and Supplements, StemCell Technologies). The NHBE cells were maintained at the ALI for 2-3 weeks, until they differentiated into a pseudostratified layer. Excess mucus on the air side was washed away with warm PBS weekly. After NHBE differentiation in the microfluidic chips, primary HASM cells were seeded into the bottom compartment. Approximately 18 h before the live-cell micromechanical experiments using MTC, the culture medium of HASM cells was changed to serum-free minimal media (1:1 vol/vol mixture of DMEM Dulbecco's modified Eagle's medium and Ham's F-12 medium, supplemented with insulin […]), and cells were maintained at 37° C. in humidified air containing 5% CO2. The overnight media was then washed and replaced with fresh minimal media before the experiments. This minimal media procedure was applied to NHBE cells as well before compressive-stress application. For experiments involving Celecoxib or Verteporfin (Sigma Aldrich), NHBE cells were pre-treated with the drugs before the second washing step, as the presence of Celecoxib in the infranatant affected HASM mechanics (FIGS. 19A-B), and Verteporfin in the infranatant would have phototoxic effects on HASM cells during the live-cell micromechanical measurements. Since Verteporfin is a photosensitizer, treatment of NHBE cells was always performed in the dark.
Magnetic twisting cytometry with optical detection was used to quantitatively assess dynamic changes in cell stiffness as an indicator of single-cell contraction or relaxation of HASM cells, as previously described. In brief, ferrimagnetic microbeads (4.5 μm in diameter) coated with synthetic Arg-Gly-Asp (RGD) containing peptide (American Peptide Company) bound to the cytoskeleton through cell surface integrin receptors were magnetized horizontally. […] Lateral bead displacements in response to the resulting oscillatory torque were detected optically (in spatial resolution of ˜5 nm), and the ratio of specific torque to bead displacement was computed as the cell stiffness in units of Pascals (Pa) per nanometer. For drug-induced single-cell contraction or relaxation, changes in HASM stiffness were measured in real-time for the duration of 300 seconds. For each individual cell, the baseline stiffness was measured for the first 60 seconds, and after drug addition, the stiffness was measured continuously for the next 240 seconds.

The test system of assay [2] is ASM cells in lung-chip co-culture with airway epithelial cells. The experiment in a line: Lung-chip: ASM contraction after compressive stress on the epithelial layer (OMTC). It is filed as cell-based, human. As to conditions: after 30 cmH2O compressive stress; 10 μM methacholine, followed by 1 μM PGE2. On the procedure: The upper and lower layer of the microfluidic device were fabricated using standard soft lithography techniques by casting a flexible and optically transparent polydimethylsiloxane (PDMS) polymer on a mold and cross-linking at 80° C. for 2 hours. The mold was fabricated using optical lithography with an epoxy-based negative photoresist (SU8) that yields thick and robust structures. The two PDMS layers each had compartments with 5 mm width, 20 mm length, and 300 μm height, and around 100 support pillars with 200 μm diameter distributed across the compartments. The two compartments were separated by an optically-clear polycarbonate membrane (Sterlitech) with 5 μm diameter holes, allowing cells on both sides of the membranes to chemically interact. To construct the complete chip, first a PDMS layer and the polycarbonate membrane were exposed to an oxygen plasma (30 W, 700 mTorr, 30 sec) to chemically activate their surfaces. Immediately after the plasma treatment, the PDMS surface was silanized using 5 μl of an APTES solution (1% 3-aminopropyltriethoxysilane in water) and the polycarbonate membrane was allowed to bond to it. After 2 hours of bonding at room temperature, the process was repeated to bond the second PDMS compartment to the other side of the polycarbonate membrane. […]

A further assay relates to ASM cells in lung-chip. Put plainly: Cell rheology measurements using the lung-chip platform (frequency-domain OMTC). It counts as cell-based, human. Conditions: frequency-domain OMTC on lung-chip. The text has this: Magnetic twisting cytometry with optical detection was used to quantitatively assess dynamic changes in cell stiffness as an indicator of single-cell contraction or relaxation of HASM cells, as previously described. In brief, ferrimagnetic microbeads (4.5 μm in diameter) coated with synthetic Arg-Gly-Asp (RGD) containing peptide (American Peptide Company) bound to the cytoskeleton through cell surface integrin receptors were magnetized horizontally. Subsequently, a vertically aligned homogeneous magnetic field varying sinusoidally in time applied an oscillatory torque, leading to both a rotation and a pivoting displacement of the bead (FIG. 18B). Measurements were performed at a single frequency of 0.75 Hz or oscillatory frequencies between 10^−1 and 10^3 Hz for cell rheology measurements (FIG. 21). Lateral bead displacements in response to the resulting oscillatory torque were detected optically (in spatial resolution of ˜5 nm), and the ratio of specific torque to bead displacement was computed as the cell stiffness in units of Pascals (Pa) per nanometer. For drug-induced single-cell contraction or relaxation, changes in HASM stiffness were measured in real-time for the duration of 300 seconds. For each individual cell, the baseline stiffness was measured for the first 60 seconds, and after drug addition, the stiffness was measured continuously for the next 240 seconds.

For another assay, the system named is airway epithelial cells. Put plainly: Gene expression analysis (TaqMan real-time PCR) in airway epithelial cells. It is filed as cell-based, human. On the procedure: as §1, with “For experiments involving Celecoxib or Verteporfin (Sigma Aldrich), NHBE cells were pre-treated with the drugs before the second washing step, as the presence of Celecoxib in the infranatant affected HASM mechanics (FIGS. 19A-B), and Verteporfin in the infranatant would have phototoxic effects on HASM cells during the live-cell micromechanical measurements. Since Verteporfin is a photosensitizer, treatment of NHBE cells was always performed in the dark.” left out
A general note: In qPCR the cycle at which signal appears reflects the starting amount.

The subject of a further assay is NHBE cells. Put plainly: PGE2 content of epithelial infranatant (EIA kit). It is filed as cell-based, human. Conditions: epithelial cells with or without compressive stress. The method, then:
(§2) Primary human epithelial and smooth muscle cells were harvested from the proximal airways (first through third order bronchi) of donor lungs unsuitable for transplantation (Table I) in accordance with the Institutional Review Boards at the University of Pennsylvania. Primary normal human bronchial epithelial (NHBE) cells were grown in collagen-coated flasks (GIBCO) using serum-free BEGM Bronchial Epithelial Cell Growth Medium™ with BulletKit™ Supplements (Lonza) and subsequently trypsinized and seeded onto porous polycarbonate membranes (either inside microfluidic devices or on transwell inserts) at 100,000 cells/cm^2. The polycarbonate membranes were coated with collagen type I (30 μg/ml; GIBCO) at 37° C. for 18 h before cell seeding. […]
Media from the basal compartments (infranatant) were collected from control samples or after application of 30 cmH2O compressive stress on NHBE cells, and were assayed for the presence of PGE2 using a commercial EIA kit (DetectX™ Prostaglandin E2 High Sensitivity Immunoassay Kit, Arbor Assays, Ann Arbor, Mich.) following the manufacturer's instructions. The absorbance in the samples was measured at 450 nm with a microplate reader (Molecular Devices, Sunnyvale, Calif.). […]

In assay [3] the test system is primary human airway epithelial cells (NHBE); readout on HASM cells. The experiment in a line: ASM cell contraction (OMTC stiffness) in response to infranatant from drug-treated epithelial cells exposed to compressive stress. It is filed as cell-based. As to conditions: epithelial cells treated with drug; 30 cmH2O, 0h vs 3h pressure. The method, then: as §2, with “seeding. After NHBE cells reached confluence (within 3-5 days), the apical medium was removed and the basal medium was replaced with differentiation medium (PneumaCult-ALI™ Medium and Supplements, StemCell Technologies). The NHBE cells were maintained at the ALI for 2-3 weeks, until they differentiated into a pseudostratified layer. Excess mucus on the air side was washed away with warm PBS weekly.” for “seeding.”
Magnetic twisting cytometry with optical detection was used to quantitatively assess dynamic changes in cell stiffness as an indicator of single-cell contraction or relaxation of HASM cells, as previously described. […]

Regarding `CCCCC[C@H](O)/C=C/[C@H]1[C@H](O)CC(=O)[C@@H]1C/C=C\CCCC(=O)O` [PGE2], in assay [1], the “Stiffness change (contraction or relaxation), asthmatic compared with non-asthmatic ASM cells” value (from here on “Stiffness change … with non-asthmatic ASM cells”) was “asthmatic ASM cells relaxed more”. Besides, the “ASM response to agonist” value in assay [1] (different doses and different patient samples) was “consistently caused ASM relaxation”. In assay [2], the “ASM contraction in lung-chip after pressure turned off” value is reported as “did not lead to relaxation”.

Consider `C=C1[C@@H](C)[C@H]2[C@H](Cc3ccccc3)NC(=O)[C@]23[C@H](OC(C)=O)/C=C/[C@@](C)(O)C(=O)[C@@H](C)C/C=C/[C@H]3[C@@H]1O` [cytochalasin D], for which, in the assay on ASM cells in lung-chip, the ASM cell stiffness entry was “reduces ASM cell stiffness” and the “Stress relaxation of ASM cells” value is on record as “easier (faster) for the cells to relax stress”.

In the case of `CCCCC[C@H](O)/C=C/[C@@H]1[C@@H](C/C=C\CCCC(=O)O)[C@@H](O)C[C@H]1O` [PGF2α], in assay [1], the “Stiffness change … with non-asthmatic ASM cells” value is “did not yield a difference in response between asthmatic and non-asthmatic ASM cells”.

As for Verteporfin, the “COX2 (PTGS2) mRNA expression” value in the assay on airway epithelial cells (airway epithelial cells) is “downregulated COX2”. In addition, in the assay with airway epithelial cells (airway epithelial cells, compressive stress), the “Regulation of COX1 and COX2 mRNA by compressive stress” value is “prohibited the downregulation of COX1 and upregulation of COX2 by compressive stress”. The “Upregulation of CTGF mRNA by compressive stress” value in the assay with airway epithelial cells (epithelial cells) was “this upregulation was abrogated”. Besides, the “PGE2 content of the infranatants” value in the assay on NHBE cells is “less PGE2 production and suppression of the effects of compressive stress”. For the same compound, the “Effect of compressive stress on epithelial cells, read as ASM cell contraction in response to 0h and 3h-pressure epithelial samples” value in assay [3] was “abrogated the effects of compressive stress”.

For the compound `NCCc1c[nH]cn1` [Histamine, histamine], in the assay with ASM cells in lung-chip, the ASM cell stiffness entry is listed as “increases ASM cell stiffness” and the “Stress relaxation of ASM cells” value is given as “more difficult (slower) for the cells to relax stress”.

As for `CC(C)NCC(O)c1ccc(O)c(O)c1` (stereo not shown) [isoproterenol], in assay [1], the “Stiffness change … with non-asthmatic ASM cells” value is on record as “less relaxation in asthmatic ASM cells”.

With `CC(=O)OC(C)C[N+](C)(C)C` (stereo not shown) [methacholine], in assay [1], the “Stiffness change … with non-asthmatic ASM cells” value is “stronger contraction in asthmatic ASM cells”. Besides, the “ASM contraction in lung-chip after pressure turned off” value in assay [2] is “only slightly increased ASM contraction”.
